Experimental data as given in patent publication US11717508B2, “Compounds, compositions, and methods for inhibiting bacterial growth” (priority 2016, dated 2023).
Where “and” joins values, the source holds several entries; their conditions need not be identical. Equal values may be shown once. Read-outs that look alike come from different tables or passages of the source.

Tested on: DosRST regulon
Assay type: cell-based
Conditions: for Counts per million (CPM) WT_HC103A: replicates 1, 2

With `O=C(Nc1cccc(O)c1)c1cccc(NC(=O)c2cccs2)c1` [HC103A, N-[3-[(3 hydroxyphenyl)carbamoyl]phenyl]thiophene-2-carboxamide] the “WT DMSO/WT HC103A fold change” value (gene MT2019 (Rv1967)) was 0.1846, the “log2 Fold change” value (gene MT2019 (Rv1967)) was −2.437 and the “Counts per million (CPM) WT_HC103A” value (gene MT2019 Rv1967) was 58.15 CPM and 26.3 CPM. The “WT DMSO/WT HC103A fold change” value (gene MT2020 Rv1968) was 0.199, the “log2 Fold change” value (gene MT2020 Rv1968) was −2.329 and the “Counts per million (CPM) WT_HC103A” value (gene MT2020 Rv1968) was 72.37 CPM and 31.88 CPM. The “WT DMSO/WT HC103A fold change” value (gene MT2021 (Rv1969)) was 0.2997, the “log2 Fold change” value (gene MT2021 (Rv1969)) was −1.738 and the “Counts per million (CPM) WT_HC103A” value (gene MT2021 Rv1969) was 29.34 CPM and 13.9 CPM. The “WT DMSO/WT HC103A fold change” value (gene MT2022 (Rv1970 lprM)) was 0.2084, the “log2 Fold change” value (gene MT2022 (Rv1970 lprM)) was −2.263 and the “Counts per million (CPM) WT_HC103A” value (gene MT2022 Rv1970 lprM) was 41.74 CPM and 24.09 CPM. For the same compound, the “WT DMSO/WT HC103A fold change” value (gene MT2023 (Rv1971)) was 0.2079, the “log2 Fold change” value (gene MT2023 (Rv1971)) was −2.266 and the “Counts per million (CPM) WT_HC103A” value (gene MT2023 Rv1971) was 53.39 CPM and 33.31 CPM. The “WT DMSO/WT HC103A fold change” value (gene MT2024 (Rv1972)) was 0.3791, the “log2 Fold change” value (gene MT2024 (Rv1972)) was −1.399 and the “Counts per million (CPM) WT_HC103A” value (gene MT2024 Rv1972) was 12.78 CPM and 9.286 CPM. The “WT DMSO/WT HC103A fold change” value (gene MT2048 Rv1992c ctpG) was 0.2903, the “log2 Fold change” value (gene MT2048 Rv1992c ctpG) was −1.784 and the “Counts per million (CPM) WT_HC103A” value (gene MT2048 Rv1992c ctpG) was 531.4 CPM and 326.8 CPM. The “WT DMSO/WT HC103A fold change” value (gene MT2052 (Rv1996)) was 0.003741, the “log2 Fold change” value (gene MT2052 (Rv1996)) was −8.063 and the “Counts per million (CPM) WT_HC103A” value (gene MT2052 Rv1996) was 107.1 CPM and 83.44 CPM. The “WT DMSO/WT HC103A fold change” value (gene MT2053 (Rv1997 ctpF)) was 0.0183, the “log2 Fold change” value (gene MT2053 (Rv1997 ctpF)) was −5.772 and the “Counts per million (CPM) WT_HC103A” value (gene MT2053 Rv1997 ctpF) was 57.85 CPM and 33.12 CPM. For the same compound, the “WT DMSO/WT HC103A fold change” value (gene MT2059 (Rv2003c)) was 0.1063, the “log2 Fold change” value (gene MT2059 (Rv2003c)) was −3.234 and the “Counts per million (CPM) WT_HC103A” value (gene MT2059 Rv2003c) was 93.54 CPM and 62.92 CPM. For the same compound, the “WT DMSO/WT HC103A fold change” value (gene MT2060 Rv2004c) was 0.05469, the “log2 Fold change” value (gene MT2060 Rv2004c) was −3.95 and the “Counts per million (CPM) WT_HC103A” value (gene MT2060 Rv2004c) was 219.7 CPM and 144.4 CPM. The “WT DMSO/WT HC103A fold change” value (gene MT2061 Rv2005c) was 0.04809, the “log2 Fold change” value (gene MT2061 Rv2005c) was −4.378 and the “Counts per million (CPM) WT_HC103A” value (gene MT2061 Rv2005c) was 138.4 CPM and 91.76 CPM. The “WT DMSO/WT HC103A fold change” value (gene MT2062 Rv2006 otsB) was 0.1408, the “log2 Fold change” value (gene MT2062 Rv2006 otsB) was −2.828 and the “Counts per million (CPM) WT_HC103A” value (gene MT2062 Rv2006 otsB) was 107.5 CPM and 97.41 CPM. For the same compound, the “WT DMSO/WT HC103A fold change” value (gene MT2063 Rv2007c fdxA) was 0.08678, the “log2 Fold change” value (gene MT2063 Rv2007c fdxA) was −4.765 and the “Counts per million (CPM) WT_HC103A” value (gene MT2063 Rv2007c fdxA) was 527.8 CPM and 132.3 CPM. The “WT DMSO/WT HC103A fold change” value (gene MT2086 (Rv2027c)) was 0.2521, the “log2 Fold change” value (gene MT2086 (Rv2027c)) was −1.988 and the “Counts per million (CPM) WT_HC103A” value (gene MT2086 Rv2027c) was 73.2 CPM and 62.79 CPM. For the same compound, the “WT DMSO/WT HC103A fold change” value (gene MT2087 Rv2028c) was 0.02878, the “log2 Fold change” value (gene MT2087 Rv2028c) was −5.119 and the “Counts per million (CPM) WT_HC103A” value (gene MT2087 Rv2028c) was 35.92 CPM and 8.702 CPM. The “WT DMSO/WT HC103A fold change” value (gene MT2088) was 0.01366, the “log2 Fold change” value (gene MT2088) was −6.194 and the “Counts per million (CPM) WT_HC103A” value (gene MT2088) was 84.09 CPM and 21.3 CPM. For the same compound, the “WT DMSO/WT HC103A fold change” value (gene MT2089 Rv2030c) was 0.01775, the “log2 Fold change” value (gene MT2089 Rv2030c) was −5.816 and the “Counts per million (CPM) WT_HC103A” value (gene MT2089 Rv2030c) was 451.1 CPM and 80.39 CPM. The “WT DMSO/WT HC103A fold change” value (gene MT2090) was 0.0164, the “log2 Fold change” value (gene MT2090) was −5.93 and the “WT DMSO/WT HC103A fold change” value (gene MT2091 Rv2032) was 0.01154. The “log2 Fold change” value (gene MT2091 Rv2032) was −6.438, the “WT DMSO/WT HC103A fold change” value (gene MT2445.1) was 0.4105 and the “log2 Fold change” value (gene MT2445.1) was −1.285. The “WT DMSO/WT HC103A fold change” value (gene MT2556 Rv2483c) was 0.3592, the “log2 Fold change” value (gene MT2556 Rv2483c) was −1.477 and the “WT DMSO/WT HC103A fold change” value (gene MT2557 Rv2484c) was 0.3196. The “log2 Fold change” value (gene MT2557 Rv2484c) was −1.646, the “WT DMSO/WT HC103A fold change” value (gene MT2574 Rv2499c) was 0.3086 and the “log2 Fold change” value (gene MT2574 Rv2499c) was −1.696. The “WT DMSO/WT HC103A fold change” value (gene MT2576) was 0.2991, the “log2 Fold change” value (gene MT2576) was −1.741 and the “WT DMSO/WT HC103A fold change” value (gene MT2577 Rv2502c accD1) was 0.3334. For the same compound, the “log2 Fold change” value (gene MT2577 Rv2502c accD1) was −1.585, the “WT DMSO/WT HC103A fold change” value (gene MT2578 Rv2503c scoB) was 0.2841 and the “log2 Fold change” value (gene MT2578 Rv2503c scoB) was −1.815. For the same compound, the “WT DMSO/WT HC103A fold change” value (gene MT2579 Rv2504c scoA) was 0.281, the “log2 Fold change” value (gene MT2579 Rv2504c scoA) was −1.831 and the “WT DMSO/WT HC103A fold change” value (gene MT2698 Rv2623) was 0.006998. For the same compound, the “log2 Fold change” value (gene MT2698 Rv2623) was −7.159, the “WT DMSO/WT HC103A fold change” value (gene MT2699 Rv2624c) was 0.01316 and the “log2 Fold change” value (gene MT2699 Rv2624c) was −6.247. For the same compound, the “WT DMSO/WT HC103A fold change” value (gene MT2700 Rv2625c) was 0.007921, the “log2 Fold change” value (gene MT2700 Rv2625c) was −6.98 and the “WT DMSO/WT HC103A fold change” value (gene MT2701 Rv2626c) was 0.00844. The “log2 Fold change” value (gene MT2701 Rv2626c) was −6.888, the “WT DMSO/WT HC103A fold change” value (gene MT2702 Rv2627c) was 0.005338 and the “log2 Fold change” value (gene MT2702 Rv2627c) was −7.55. For the same compound, the “WT DMSO/WT HC103A fold change” value (gene MT2703 Rv2678) was 0.02894, the “log2 Fold change” value (gene MT2703 Rv2678) was −5.111 and the “WT DMSO/WT HC103A fold change” value (gene MT2704 Rv2629) was 0.05675. For the same compound, the “log2 Fold change” value (gene MT2704 Rv2629) was −4.139, the “WT DMSO/WT HC103A fold change” value (gene MT2705 Rv2630) was 0.07365 and the “log2 Fold change” value (gene MT2705 Rv2630) was 3.763. The “WT DMSO/WT HC103A fold change” value (gene MT2707 Rv2631) was 0.07456, the “log2 Fold change” value (gene MT2707 Rv2631) was −3.745 and the “WT DMSO/WT HC103A fold change” value (gene MT3171 Rv3086 adhD) was 0.4045. For the same compound, the “log2 Fold change” value (gene MT3171 Rv3086 adhD) was −1.306, the “WT DMSO/WT HC103A fold change” value (gene MT3210) was 0.0164 and the “log2 Fold change” value (gene MT3210) was −5.93. The “WT DMSO/WT HC103A fold change” value (gene MT3212 Rv3127) was 0.01248, the “log2 Fold change” value (gene MT3212 Rv3127) was −6.324 and the “WT DMSO/WT HC103A fold change” value (gene MT3216 Rv3130c) was 0.005779. For the same compound, the “log2 Fold change” value (gene MT3216 Rv3130c) was −7.435, the “WT DMSO/WT HC103A fold change” value (gene MT3217 Rv3131) was 0.004749 and the “log2 Fold change” value (gene MT3217 Rv3131) was −7.718. The “WT DMSO/WT HC103A fold change” value (gene MT3218 Rv3132c) was 0.04611, the “log2 Fold change” value (gene MT3218 Rv3132c) was −4.439 and the “WT DMSO/WT HC103A fold change” value (gene MT3219 Rv3133c) was 0.0294. For the same compound, the “log2 Fold change” value (gene MT3219 Rv3133c) was −5.088, the “WT DMSO/WT HC103A fold change” value (gene MT3220 Rv3134c) was 0.02054 and the “log2 Fold change” value (gene MT3220 Rv3134c) was −5.606. The “WT DMSO/WT HC103A fold change” value (gene MT3427) was 0.4435, the “log2 Fold change” value (gene MT3427) was −1.173 and the “WT DMSO/WT HC103A fold change” value (gene MT3443 Rv3340 metC) was 0.3114. For the same compound, the “log2 Fold change” value (gene MT3443 Rv3340 metC) was −1.683, the “WT DMSO/WT HC103A fold change” value (gene MT3444 Rv3341 metA) was 0.2535 and the “log2 Fold change” value (gene MT3444 Rv3341 metA) was −1.924. The “WT DMSO/WT HC103A fold change” value (gene MT3608 Rv3504 fadE26) was 0.3558, the “log2 Fold change” value (gene MT3608 Rv3504 fadE26) was −1.491 and the “WT DMSO/WT HC103A fold change” value (gene MT3634 Rv3531c) was 0.2978. The “log2 Fold change” value (gene MT3634 Rv3531c) was −1.748, the “WT DMSO/WT HC103A fold change” value (gene MT3656 Rv3552) was 0.3116 and the “log2 Fold change” value (gene MT3656 Rv3552) was −1.582. The “WT DMSO/WT HC103A fold change” value (gene MT3716 Rv3614c) was 0.3057, the “log2 Fold change” value (gene MT3716 Rv3614c) was −1.71 and the “WT DMSO/WT HC103A fold change” value (gene MT3717 Rv3615c) was 0.3122. For the same compound, the “log2 Fold change” value (gene MT3717 Rv3615c) was −1.679, the “WT DMSO/WT HC103A fold change” value (gene MT3718 Rv3616c) was 0.3166 and the “log2 Fold change” value (gene MT3718 Rv3616c) was −1.659.
